Assays:
Assay type in all cases: cell-based
AT1R-CXCR2 heteromer [1] = target: T1, AT1R-CXCR2 heteromer (Homo sapiens, UniProt P25025+P30556); test: BRET trafficking of AT1R/Rluc8 (Venus/Kras, Rab5) with unlabelled CXCR2, pre-treatment with vehicle or antagonists/inverse agonists; conditions: 50 minutes after pre-treatment (10 μM); for effect of both CXCL8 and AngII combined on AT1R/Rluc8-Venus/Kras BRET / effect of both CXCL8 and AngII combined on AT1R/Rluc8-Venus/Rab5 BRET: 10 nM CXCL8 and 100 nM AngII; for effect of both CXCL8 and AngII combined on AT1R/Rluc8-Venus/Kras BRET: FIG. 19B-19F; for effect of both CXCL8 and AngII combined on AT1R/Rluc8-Venus/Rab5 BRET: FIG. 20B-20F; for effect of AngII on AT1R/Rluc8-Venus/Kras BRET / effect of AngII on AT1R/Rluc8-Venus/Rab5 BRET: 100 nM AngII only; for effect of AngII on AT1R/Rluc8-Venus/Kras BRET: FIG. 19A; for effect of AngII on AT1R/Rluc8-Venus/Rab5 BRET: FIG. 20A
T1 sequence (P30556 1-359): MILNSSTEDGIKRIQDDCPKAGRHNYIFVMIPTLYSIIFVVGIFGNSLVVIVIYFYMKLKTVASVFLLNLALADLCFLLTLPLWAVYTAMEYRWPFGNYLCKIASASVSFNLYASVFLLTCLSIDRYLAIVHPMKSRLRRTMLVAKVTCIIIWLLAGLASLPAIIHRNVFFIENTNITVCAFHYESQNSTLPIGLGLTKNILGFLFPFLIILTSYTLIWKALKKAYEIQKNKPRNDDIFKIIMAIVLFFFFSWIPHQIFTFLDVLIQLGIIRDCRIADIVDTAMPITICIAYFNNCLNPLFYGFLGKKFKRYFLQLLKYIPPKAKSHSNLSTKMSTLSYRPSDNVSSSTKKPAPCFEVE
T1 sequence (P25025 1-360): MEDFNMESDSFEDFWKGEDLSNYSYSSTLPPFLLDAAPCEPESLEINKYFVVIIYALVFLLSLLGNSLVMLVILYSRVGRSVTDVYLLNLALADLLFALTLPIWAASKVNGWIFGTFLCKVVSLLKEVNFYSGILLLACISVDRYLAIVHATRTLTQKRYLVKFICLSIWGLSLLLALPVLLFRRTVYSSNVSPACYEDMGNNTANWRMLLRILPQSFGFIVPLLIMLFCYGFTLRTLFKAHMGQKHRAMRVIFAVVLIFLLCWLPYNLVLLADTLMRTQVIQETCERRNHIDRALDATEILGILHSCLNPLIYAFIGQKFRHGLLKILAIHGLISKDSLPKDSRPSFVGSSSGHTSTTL
Procedure: (§1) HEK293FT cells were seeded in 6-well plates at a density of approximately 700,000 cells/well and maintained at 37° C., 5% CO2 in Complete Media (DMEM containing 0.3 mg/ml glutamine, 100 IU/ml penicillin and 100 μg/ml streptomycin (Gibco/Thermo Fisher)) supplemented with 10% fetal calf serum (FCS; Bovogen). Transient transfections were carried out 24 h after seeding using FuGene6™ (Promega) according to manufacturer instructions. 24 h post-transfection, cells were washed with PBS, detached using 0.05% trypsin/0.53 mM EDTA, resuspended in HEPES-buffered phenol red free Complete Media containing 5% FCS and added to a poly-L-lysine-coated white 96-well microplate (Greiner Bio-One). 48 h post-transfection, bioluminescence resonance energy transfer (BRET) assays were carried out following pre-incubation of cells with EnduRen™ (Promega) at a final concentration of 30 μM, at 37° C., 5% CO2 for 2 h. BRET measurements were taken at 37° C. using the LUMlstar™ or CLARIOstar™ (BMG Labtech).
(§2) For antagonist/inverse agonist assays, cells were pre-incubated with EnduRen for 1.5 hours, followed by the addition of vehicle or antagonists/inverse agonists (10 μM) for another 30 minutes.
(§3) The BRET signal observed between interacting proteins is normalized by subtracting the background BRET ratio. […] In the following examples, the second calculation will be used and the signal is described as ligand-induced BRET′. Furthermore, for data shown in FIGS. 4 to 20, all data points in a given set are corrected relative to the final data point prior to agonist treatment, which is fixed to zero. In keys on FIGS. 7 to 20, “>” means “followed by after 50 minutes”, with agonists added at time zero on the x-axes.
(§4) Prior to agonist treatment (added at 0 minutes), a baseline BRET signal was recorded for each of the combinations for 20 minutes. Data were calculated as ligand-induced BRET relative to the ‘vehicle followed by vehicle’ (veh>veh) data set.

AT1R-CXCR2 heteromer [2] = target: T2, AT1R-CXCR2 heteromer (Homo sapiens, UniProt P25025+P30556); test: BRET trafficking of CXCR2/Rluc8 (Venus/Kras, Rab5, Rab8) with HA-AT1R, pre-treatment with vehicle or antagonists/inverse agonists; conditions: 50 minutes after pre-treatment (10 μM); for effect of both CXCL8 and AngII combined on CXCR2/Rluc8-Venus/Kras BRET / effect of both CXCL8 and AngII combined on CXCR2/Rluc8-Venus/Rab5 BRET / effect of both CXCL8 and AngII combined on CXCR2/Rluc8-Venus/Rab8 BRET: 10 nM CXCL8 and 100 nM AngII; for effect of both CXCL8 and AngII combined on CXCR2/Rluc8-Venus/Kras BRET: FIG. 16C, 16E-16H; for effect of both CXCL8 and AngII combined on CXCR2/Rluc8-Venus/Rab5 BRET: FIG. 17C, 17E-17H; for effect of both CXCL8 and AngII combined on CXCR2/Rluc8-Venus/Rab8 BRET: FIG. 18C, 18E-18H; for effect of AngII on CXCR2/Rluc8-Venus/Kras BRET / effect of AngII on CXCR2/Rluc8-Venus/Rab5 BRET / effect of AngII on CXCR2/Rluc8-Venus/Rab8 BRET: 100 nM AngII only; for effect of AngII on CXCR2/Rluc8-Venus/Kras BRET: FIG. 16B, 16D; for effect of AngII on CXCR2/Rluc8-Venus/Rab5 BRET: FIG. 17B, 17D; for effect of AngII on CXCR2/Rluc8-Venus/Rab8 BRET: FIG. 18B, 18D
T2 sequence (P25025 1-360): T1 sequence (P25025 1-360)
T2 sequence (P30556 1-359): T1 sequence (P30556 1-359)
Procedure: as §1, §2, §3, §4

AT1R-CXCR2 heteromer [3] = target: T2, AT1R-CXCR2 heteromer; test: BRET Gi coupling, CXCR2/Rluc8, Venus/mGsi and HA-AT1R, pre-treatment with antagonists/inverse agonists; conditions: FIGS. 6-15; for effect of CXCL8 only on CXCR2/Rluc8-Venus/mGsi BRET: 10 nM CXCL8, 50 minutes after pre-treatment with antagonists/inverse agonists (10 μM); for effect of CXCL8 and AngII combined on CXCR2/Rluc8-Venus/mGsi BRET: 10 nM CXCL8 and 100 nM AngII; for effect of CXCL8 and AngII combined on CXCR2/Rluc8-Venus/mGsi BRET / effect of AngII only on CXCR2/Rluc8-Venus/mGsi BRET: 50 minutes after pre-treatment with antagonists/inverse agonists (10 μM); for effect of AngII only on CXCR2/Rluc8-Venus/mGsi BRET: 100 nM AngII
Procedure: as §1, §2, §3, §4

Structure (SMILES)	effect of both CXCL8 and AngII combined on AT1R/Rluc8-Venus/Kras BRET (AT1R-CXCR2 heteromer [1])	effect of both CXCL8 and AngII combined on AT1R/Rluc8-Venus/Rab5 BRET (AT1R-CXCR2 heteromer [1])	effect of both CXCL8 and AngII combined on CXCR2/Rluc8-Venus/Kras BRET (AT1R-CXCR2 heteromer [2])	effect of both CXCL8 and AngII combined on CXCR2/Rluc8-Venus/Rab5 BRET (AT1R-CXCR2 heteromer [2])	effect of both CXCL8 and AngII combined on CXCR2/Rluc8-Venus/Rab8 BRET (AT1R-CXCR2 heteromer [2])	effect of AngII on CXCR2/Rluc8-Venus/Kras BRET (AT1R-CXCR2 heteromer [2])	effect of AngII on CXCR2/Rluc8-Venus/Rab5 BRET (AT1R-CXCR2 heteromer [2])	effect of AngII on CXCR2/Rluc8-Venus/Rab8 BRET (AT1R-CXCR2 heteromer [2])	effect of CXCL8 only on CXCR2/Rluc8-Venus/mGsi BRET (AT1R-CXCR2 heteromer [3])	effect of CXCL8 and AngII combined on CXCR2/Rluc8-Venus/mGsi BRET (AT1R-CXCR2 heteromer [3])	effect of AngII only on CXCR2/Rluc8-Venus/mGsi BRET (AT1R-CXCR2 heteromer [3])	effect of AngII on AT1R/Rluc8-Venus/Kras BRET (AT1R-CXCR2 heteromer [1])	effect of AngII on AT1R/Rluc8-Venus/Rab5 BRET (AT1R-CXCR2 heteromer [1])
O=C(Nc1ccc([N+](=O)[O-])cc1O)Nc1ccccc1Br [SB225002]	indistinguishable from the effect observed with AngII only	indistinguishable from the effect observed with AngII only	indistinguishable from the effect observed with AngII only	appears to inhibit the effect of AngII as well as that of CXCL8	indistinguishable from the effect observed with AngII only	did not alter	did appear to inhibit	did not alter	completely inhibited	indistinguishable from that observed with AngII only	not being altered	–	–
CCOc1nc2cccc(C(=O)O)c2n1Cc1ccc(-c2ccccc2-c2nc(=O)o[nH]2)cc1 [azilsartan]	completely inhibited	completely inhibited	indistinguishable from the effect observed with CXCL8 only	indistinguishable from the effect observed with CXCL8 only	completely inhibited	completely inhibited	completely inhibited	completely inhibited	not being altered	indistinguishable from that observed with CXCL8 only	completely inhibited	completely inhibited	completely inhibited
CCOc1nc2cccc(C(=O)O)c2n1Cc1ccc(-c2ccccc2-c2nnn[nH]2)cc1 [candesartan]	–	–	–	–	–	–	–	–	not being altered	indistinguishable from that observed with CXCL8 only	completely inhibited	–	–
Cc1c(F)cccc1NC(=O)Nc1ccc(Cl)c(S(=O)(=O)[C@H]2CCCNC2)c1O [danirixin]	indistinguishable from the effect observed with AngII only	indistinguishable from the effect observed with AngII only	–	–	–	–	–	–	completely inhibited	indistinguishable from that observed with AngII only	not being altered	–	–
CCCCc1ncc(/C=C(\Cc2cccs2)C(=O)O)n1Cc1ccc(C(=O)O)cc1 [eprosartan]	–	–	–	–	–	–	–	–	not being altered	indistinguishable from that observed with CXCL8 only	completely inhibited	–	–
CCCCC1=NC2(CCCC2)C(=O)N1Cc1ccc(-c2ccccc2-c2nnn[nH]2)cc1 [irbesartan]	completely inhibited	completely inhibited	indistinguishable from the effect observed with CXCL8 only	indistinguishable from the effect observed with CXCL8 only	completely inhibited	completely inhibited	completely inhibited	completely inhibited	not being altered	indistinguishable from that observed with CXCL8 only	completely inhibited	completely inhibited	completely inhibited
CCCCc1nc(Cl)c(CO)n1Cc1ccc(-c2ccccc2-c2nn[nH]n2)cc1 [losartan]	–	–	–	–	–	–	–	–	not being altered	indistinguishable from that observed with CXCL8 only	completely inhibited	–	–
CC[C@@H](Nc1c(Nc2cccc(C(=O)N(C)C)c2O)c(=O)c1=O)c1ccc(C)o1 [navarixin]	indistinguishable from the effect observed with AngII only	indistinguishable from the effect observed with AngII only	indistinguishable from the effect observed with AngII only	indistinguishable from the effect observed with AngII only	indistinguishable from the effect observed with AngII only	did not alter	did not alter	did not alter	completely inhibited	indistinguishable from that observed with AngII only	not being altered	–	–
CCCc1nc2c(C)cc(-c3nc4ccccc4n3C)cc2n1Cc1ccc(-c2ccccc2C(=O)O)cc1 [telmisartan]	–	–	–	–	–	–	–	–	not being altered	indistinguishable from that observed with CXCL8 only	completely inhibited	–	–

From patent US20240009191A1, “METHOD AND COMPOSITION FOR THE TREATMENT OF DISEASE” (DIMERIX BIOSCIENCE PTY LTD, priority 2019, published 2024)
